Measured values: ChEMBL document CHEMBL3991601, “The target landscape of clinical kinase drugs” (Science, 2017)
Activity calls are given as the source filed them. Rule as the data show it, for most assays here: actives have a measured Kd and inactives only a lower limit.

Experiments:
[1] = target: cAMP-dependent protein kinase catalytic subunit gamma (Homo sapiens, UniProt P22612)
[2] = target: S-adenosylmethionine synthase isoform type-2 (Homo sapiens, UniProt P31153)
[3] = target: Structural maintenance of chromosomes protein 2 (Homo sapiens, UniProt O95347)
[4] = target: Calcium/calmodulin-dependent protein kinase kinase 2 (Homo sapiens, UniProt Q96RR4)
[5] = target: T1, Dual specificity mitogen-activated protein kinase kinase 5 (Homo sapiens, UniProt Q13163)
T1 sequence (Q13163 whole entry): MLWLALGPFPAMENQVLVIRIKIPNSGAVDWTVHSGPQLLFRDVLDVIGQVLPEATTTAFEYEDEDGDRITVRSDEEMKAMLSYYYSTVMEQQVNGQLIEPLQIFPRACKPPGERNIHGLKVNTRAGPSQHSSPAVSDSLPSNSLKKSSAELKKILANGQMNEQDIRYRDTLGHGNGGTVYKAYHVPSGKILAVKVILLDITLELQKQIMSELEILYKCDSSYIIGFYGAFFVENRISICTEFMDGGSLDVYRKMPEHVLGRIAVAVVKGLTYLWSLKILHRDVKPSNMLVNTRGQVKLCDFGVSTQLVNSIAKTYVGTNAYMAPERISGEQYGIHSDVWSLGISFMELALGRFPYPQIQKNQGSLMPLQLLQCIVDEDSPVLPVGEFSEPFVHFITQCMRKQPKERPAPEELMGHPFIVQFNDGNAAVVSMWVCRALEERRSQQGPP

[6] = target: T2, Ferrochelatase, mitochondrial (Homo sapiens, UniProt P22830)
T2 sequence (P22830 whole entry): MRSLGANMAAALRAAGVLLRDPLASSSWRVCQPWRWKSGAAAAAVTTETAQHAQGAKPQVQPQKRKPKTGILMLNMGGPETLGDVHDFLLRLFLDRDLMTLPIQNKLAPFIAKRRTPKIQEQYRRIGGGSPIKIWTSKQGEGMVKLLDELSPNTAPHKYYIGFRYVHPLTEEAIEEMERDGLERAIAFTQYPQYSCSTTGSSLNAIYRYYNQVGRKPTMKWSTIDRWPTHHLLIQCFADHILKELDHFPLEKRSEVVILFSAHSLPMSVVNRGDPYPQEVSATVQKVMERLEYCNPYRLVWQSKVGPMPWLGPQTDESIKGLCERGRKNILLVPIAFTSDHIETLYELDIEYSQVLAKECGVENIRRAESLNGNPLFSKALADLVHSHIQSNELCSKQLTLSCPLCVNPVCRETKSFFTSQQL

[7] = target: Dual specificity tyrosine-phosphorylation-regulated kinase 1A (Homo sapiens, UniProt Q13627)
[8] = target: Cyclin-dependent kinase 7 (Homo sapiens, UniProt P50613)
[9] = target: T3, Interleukin-1 receptor-associated kinase 3 (Homo sapiens, UniProt Q9Y616)
T3 sequence (Q9Y616 whole entry): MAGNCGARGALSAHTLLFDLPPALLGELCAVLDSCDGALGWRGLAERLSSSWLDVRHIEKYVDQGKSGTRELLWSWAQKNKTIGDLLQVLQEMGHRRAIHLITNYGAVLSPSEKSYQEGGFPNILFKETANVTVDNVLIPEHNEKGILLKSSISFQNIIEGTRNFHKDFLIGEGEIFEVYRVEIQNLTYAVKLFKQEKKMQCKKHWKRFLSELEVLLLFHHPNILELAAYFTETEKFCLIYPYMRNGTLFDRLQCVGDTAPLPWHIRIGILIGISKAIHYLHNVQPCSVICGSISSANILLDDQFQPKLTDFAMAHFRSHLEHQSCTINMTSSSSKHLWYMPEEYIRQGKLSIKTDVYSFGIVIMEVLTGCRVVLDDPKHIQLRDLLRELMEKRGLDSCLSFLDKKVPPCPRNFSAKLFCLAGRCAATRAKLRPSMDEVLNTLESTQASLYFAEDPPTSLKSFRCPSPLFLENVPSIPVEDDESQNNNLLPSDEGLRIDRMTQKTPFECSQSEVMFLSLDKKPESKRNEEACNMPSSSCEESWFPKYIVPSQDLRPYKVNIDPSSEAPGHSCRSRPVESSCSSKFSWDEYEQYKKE

[10] = target: T4, Acyl-CoA dehydrogenase family member 10 (Homo sapiens, UniProt Q6JQN1)
T4 sequence (Q6JQN1 whole entry): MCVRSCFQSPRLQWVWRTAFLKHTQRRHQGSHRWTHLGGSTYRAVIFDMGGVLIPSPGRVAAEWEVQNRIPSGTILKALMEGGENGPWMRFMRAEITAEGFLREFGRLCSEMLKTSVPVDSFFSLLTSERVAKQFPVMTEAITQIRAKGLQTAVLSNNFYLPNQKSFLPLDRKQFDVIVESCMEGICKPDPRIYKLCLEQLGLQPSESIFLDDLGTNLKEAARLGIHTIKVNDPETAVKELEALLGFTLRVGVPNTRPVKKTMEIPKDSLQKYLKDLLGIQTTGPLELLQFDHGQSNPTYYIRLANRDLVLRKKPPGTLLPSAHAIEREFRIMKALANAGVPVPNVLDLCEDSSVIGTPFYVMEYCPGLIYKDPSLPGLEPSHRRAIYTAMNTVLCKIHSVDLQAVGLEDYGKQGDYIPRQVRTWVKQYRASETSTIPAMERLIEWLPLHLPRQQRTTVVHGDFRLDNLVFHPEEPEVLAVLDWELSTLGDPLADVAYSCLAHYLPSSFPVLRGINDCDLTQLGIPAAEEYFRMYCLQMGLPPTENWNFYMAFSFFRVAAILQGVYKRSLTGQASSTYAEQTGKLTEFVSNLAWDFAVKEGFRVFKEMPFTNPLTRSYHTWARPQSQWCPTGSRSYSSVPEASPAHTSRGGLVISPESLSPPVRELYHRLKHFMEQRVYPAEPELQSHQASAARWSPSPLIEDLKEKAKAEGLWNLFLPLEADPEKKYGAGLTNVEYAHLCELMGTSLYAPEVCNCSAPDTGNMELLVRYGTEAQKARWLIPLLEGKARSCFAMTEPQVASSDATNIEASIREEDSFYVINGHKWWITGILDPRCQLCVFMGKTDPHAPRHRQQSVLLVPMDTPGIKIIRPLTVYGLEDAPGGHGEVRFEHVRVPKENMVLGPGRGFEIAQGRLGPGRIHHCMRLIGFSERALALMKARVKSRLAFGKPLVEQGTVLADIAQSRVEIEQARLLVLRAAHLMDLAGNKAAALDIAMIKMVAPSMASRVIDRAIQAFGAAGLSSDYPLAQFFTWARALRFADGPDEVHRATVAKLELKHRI

Measured: Kd
Also: in the data inactive means no Kd found up to 30 µM.

Sequence of Structural maintenance of chromosomes protein 2 (O95347 whole entry): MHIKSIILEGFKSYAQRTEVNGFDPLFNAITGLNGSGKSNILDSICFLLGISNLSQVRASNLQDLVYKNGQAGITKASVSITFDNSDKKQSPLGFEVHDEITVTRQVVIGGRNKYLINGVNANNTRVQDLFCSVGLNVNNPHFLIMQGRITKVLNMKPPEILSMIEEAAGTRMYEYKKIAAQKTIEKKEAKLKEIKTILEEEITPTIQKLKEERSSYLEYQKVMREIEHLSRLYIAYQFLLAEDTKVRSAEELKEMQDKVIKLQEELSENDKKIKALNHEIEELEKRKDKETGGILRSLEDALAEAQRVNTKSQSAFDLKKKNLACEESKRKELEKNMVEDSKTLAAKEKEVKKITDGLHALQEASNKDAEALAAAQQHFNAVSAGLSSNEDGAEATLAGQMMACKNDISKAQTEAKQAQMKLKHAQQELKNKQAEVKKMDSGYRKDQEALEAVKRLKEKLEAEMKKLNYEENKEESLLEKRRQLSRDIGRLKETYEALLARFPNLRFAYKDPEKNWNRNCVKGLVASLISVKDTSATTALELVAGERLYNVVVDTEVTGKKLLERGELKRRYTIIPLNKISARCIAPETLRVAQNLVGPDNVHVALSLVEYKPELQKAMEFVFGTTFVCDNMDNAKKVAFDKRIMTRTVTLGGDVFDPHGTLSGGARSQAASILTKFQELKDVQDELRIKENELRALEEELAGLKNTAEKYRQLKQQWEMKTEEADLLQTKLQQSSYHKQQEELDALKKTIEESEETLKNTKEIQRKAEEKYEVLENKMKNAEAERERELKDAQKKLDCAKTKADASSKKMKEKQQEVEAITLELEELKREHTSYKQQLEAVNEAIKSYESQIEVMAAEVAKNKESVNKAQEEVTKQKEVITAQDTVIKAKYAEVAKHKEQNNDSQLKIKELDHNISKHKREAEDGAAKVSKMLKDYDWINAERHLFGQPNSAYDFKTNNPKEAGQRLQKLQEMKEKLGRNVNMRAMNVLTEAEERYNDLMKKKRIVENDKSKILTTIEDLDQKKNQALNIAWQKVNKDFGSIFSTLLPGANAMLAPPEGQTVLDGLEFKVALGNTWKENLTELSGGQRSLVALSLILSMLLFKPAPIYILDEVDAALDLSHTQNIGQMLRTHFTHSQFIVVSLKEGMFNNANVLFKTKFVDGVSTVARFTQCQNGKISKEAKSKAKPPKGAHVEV
Sequence of cAMP-dependent protein kinase catalytic subunit gamma (P22612 whole entry, canonical isoform): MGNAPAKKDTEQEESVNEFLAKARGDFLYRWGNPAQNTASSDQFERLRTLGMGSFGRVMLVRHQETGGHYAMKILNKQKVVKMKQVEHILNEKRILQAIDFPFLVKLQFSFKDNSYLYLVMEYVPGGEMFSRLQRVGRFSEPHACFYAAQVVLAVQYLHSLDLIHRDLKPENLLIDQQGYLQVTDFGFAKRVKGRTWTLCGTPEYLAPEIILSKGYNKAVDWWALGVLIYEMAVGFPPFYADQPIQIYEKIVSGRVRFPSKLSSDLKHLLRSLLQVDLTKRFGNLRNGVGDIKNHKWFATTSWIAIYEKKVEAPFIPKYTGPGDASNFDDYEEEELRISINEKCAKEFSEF
Sequence of S-adenosylmethionine synthase isoform type-2 (P31153 whole entry, canonical isoform): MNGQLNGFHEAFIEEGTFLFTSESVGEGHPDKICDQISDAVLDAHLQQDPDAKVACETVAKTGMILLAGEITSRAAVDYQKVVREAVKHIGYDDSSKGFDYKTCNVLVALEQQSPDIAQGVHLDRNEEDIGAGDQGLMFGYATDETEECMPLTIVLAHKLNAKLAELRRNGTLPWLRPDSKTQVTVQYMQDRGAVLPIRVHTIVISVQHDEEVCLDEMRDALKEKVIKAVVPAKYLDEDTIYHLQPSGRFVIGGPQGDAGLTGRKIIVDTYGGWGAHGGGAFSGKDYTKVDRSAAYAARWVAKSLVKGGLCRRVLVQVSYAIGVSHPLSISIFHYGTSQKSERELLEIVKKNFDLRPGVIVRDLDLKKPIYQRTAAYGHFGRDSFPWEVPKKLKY
Sequence of Calcium/calmodulin-dependent protein kinase kinase 2 (Q96RR4 whole entry): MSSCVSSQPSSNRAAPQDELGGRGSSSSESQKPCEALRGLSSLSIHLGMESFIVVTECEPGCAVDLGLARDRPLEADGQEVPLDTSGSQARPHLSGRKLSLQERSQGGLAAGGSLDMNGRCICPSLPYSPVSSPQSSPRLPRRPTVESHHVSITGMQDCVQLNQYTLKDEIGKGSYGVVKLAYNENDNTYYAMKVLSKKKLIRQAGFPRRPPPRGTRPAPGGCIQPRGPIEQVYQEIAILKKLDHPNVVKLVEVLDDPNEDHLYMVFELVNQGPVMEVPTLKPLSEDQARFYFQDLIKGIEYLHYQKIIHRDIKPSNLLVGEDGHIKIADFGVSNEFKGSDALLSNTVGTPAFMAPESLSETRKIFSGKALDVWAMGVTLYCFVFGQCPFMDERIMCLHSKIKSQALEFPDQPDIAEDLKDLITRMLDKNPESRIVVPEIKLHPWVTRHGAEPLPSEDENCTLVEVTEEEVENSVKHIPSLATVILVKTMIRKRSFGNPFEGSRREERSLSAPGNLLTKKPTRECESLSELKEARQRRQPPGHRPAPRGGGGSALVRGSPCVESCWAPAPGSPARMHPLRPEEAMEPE
Sequence of Cyclin-dependent kinase 7 (P50613 whole entry): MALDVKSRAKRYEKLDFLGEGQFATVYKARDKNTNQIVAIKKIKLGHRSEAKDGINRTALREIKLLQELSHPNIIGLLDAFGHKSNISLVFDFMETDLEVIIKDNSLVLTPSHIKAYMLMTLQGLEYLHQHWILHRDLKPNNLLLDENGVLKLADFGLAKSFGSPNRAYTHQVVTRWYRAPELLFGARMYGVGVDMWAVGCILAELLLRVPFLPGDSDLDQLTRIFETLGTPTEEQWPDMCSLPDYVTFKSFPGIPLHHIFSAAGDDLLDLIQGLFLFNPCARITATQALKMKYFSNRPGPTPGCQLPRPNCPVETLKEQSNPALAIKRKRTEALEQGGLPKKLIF

Cc1cc([C@@H](C)Nc2ccccc2C(=O)O)c2nc(N3CCOCC3)cc(=O)n2c1 [AZD-6482]
inactive: [1] > 30 µM | [2] > 30 µM | [3] > 30 µM | [4] > 30 µM | [5] > 30 µM | [6] > 30 µM | [7] > 30 µM | [8] > 30 µM | [9] > 30 µM | [10] > 30 µM

CN1N=C(N)c2cn([C@@H]3O[C@H](COP(=O)(O)O)[C@@H](O)[C@H]3O)c3ncnc1c23 [TRICIRIBINE PHOSPHATE]
inactive: [1] > 30 µM | [2] > 30 µM | [3] > 30 µM | [4] > 30 µM | [5] > 30 µM | [6] > 30 µM | [7] > 30 µM | [8] > 30 µM | [9] > 30 µM | [10] > 30 µM

CC(=O)Nc1cccc(-n2c(=O)n(C3CC3)c(=O)c3c(Nc4ccc(I)cc4F)n(C)c(=O)c(C)c32)c1 [TRAMETINIB]
inactive: [1] > 30 µM | [2] > 30 µM | [3] > 30 µM | [4] > 30 µM | [5] > 30 µM | [6] > 30 µM | [7] > 30 µM | [8] > 30 µM | [9] > 30 µM | [10] > 30 µM
